Results on 44 molecules are retold here after patent US5767120A, “Tricyclic derivatives, compositions and methods of use” (Schering Corporation, priority 1995, dated 1998).

SMILES strings stand for the structures.

In assay [1] the test system is TNF-α. Nature of the assay: Inhibition of LPS-Induced TNF-α Production From the Murine Cell Line WEHI-265. In kind it is cell-based. The note with it: Mus musculus, WEHI-265 cells, 20-24 hours. The method, then:
This test procedure is a standard test used to determine anti-TNF-α activity and to evaluate the usefulness of said compounds for counteracting the biological effects of TNF-α.
1. In Vitro Study: Inhibition of LPS-Induced TNF-α Production From the Murine Cell Line WEHI-265
1) Cells (obtained from cell cultures containing ≤10^6 cells/ml) are suspended at 0.2×10^6 cells/ml in complete medium (RPMI1640, with 10% FCS, 10^-5 M 2-ME, 2 mM glutamine and 10 mM HEPES buffer) and plated in CoStar 24 well plates (1.0 ml/well).
2) Compounds are dissolved in the appropriate vehicle at 400 times the concentration to be tested, and 5 μl of compound is added to the wells.
3) LPS (from E. coli 0111:B4) is diluted to 6 μg/ml and 1.0 ml is added to wells.
4) Plates are incubated 20-24 hours in 37° CO02 incubator.
5) Supernatant fluids are collected and analyzed for TNF content as described in J. ImmunoL, 142:3884.

Assay [2] can be described thus: Inhibition of LPS/Galactosaimine-Induced Lethality (septic shock). In kind it is in vivo, Mice (C57BI/6J males). The note with it: 25 mg/kg orally or i.p. one hour before LPS (100 ng) and d-galactosamine (8 mg) i.p.; survival 24 hours after challenge. The method, then: This test procedure is a standard test used to determine activity against septic shock.
3. In Vivo Study: Inhibition of LPS/Galactosaimine-Induced Lethality
1) Mice (C57BI/6J males, 6-8 weeks of age) are dosed with the indicated compound (dissolved in CMC suspension vehicle; compounds are given orally or i.p. one hour before challenge with LPS and d-galactosamine).
2) Mice are challenged i.p. with a mixture of LPS (from E. coli 0111:B4; 100 ng) and d-galactosamine (8 mg).
3) Survival is determined 24 hours after challenge. See procedure published in J. Exp. Med. 165:657 (1987)

Assay [3] concerns serum TNF. Nature of the assay: Inhibition of LPS-Induced Serum TNF. The note with it: Mus musculus, 1.5 h; 25 mg/kg orally or i.p. one hour before LPS (50 μg i.p.); serum 90 min after LPS; values may be subject to a wide margin of error. In kind it is in vivo, Mice (C57BI/6J males). On the procedure:
In addition to the in vitro test described above, the following in vivo test was also performed on several of the compounds of the present invention.
2. In Vivo Study: Inhibition of LPS-Induced Serum TNF
1) Mice (C57BI/6J males, 6-8 weeks of age) are dosed with the indicated compound (dissolved in CMC suspension vehicle; compounds are given orally or i.p. one hour before LPS challenge).
3) Mice are bled 90 min after LPS challenge.
4) Sera are analyzed for TNF content by ELISA as described in J. Immunol.

`C=CCC1(CCN(C)C(=O)OCC)c2ccccc2CCc2ccccc21` [Compound ICC]: the inhibition (as a rule, the change of the read-out against control, counted positive when it falls) at 10 µM in assay [1] came out at 42%. For the molecule `CCOC1(CCN(C)C(=O)c2ccc(C(=O)OC)cc2)c2ccccc2CCc2ccccc21` [IFF], the “# dead/total at 25 mg/kg” value in assay [2] was 9/9. Further, the inhibition in vivo (in general, the drop in the measured response relative to a control, in per cent) at 25 mg/kg in assay [3] came to 0%. In addition, in assay [1], the inhibition at 10 µM came to 44%. In the case of `CCCC1(CCN(C)C)c2ccccc2COc2ccccc21` (centres unmarked) [ID], in assay [3], the inhibition in vivo at 25 mg/kg stood at 67%. For the same molecule, in assay [1], 10 µM produced 62% inhibition. Take `CCOCC1(CN(C)C)c2ccccc2CCc2ccccc21` [IZ]: in assay [2], the “# dead/total at 25 mg/kg” value was 8/10. In assay [3], this molecule showed an inhibition in vivo at 25 mg/kg of 0%. This molecule gave an inhibition at 10 µM in assay [1] of 37%. The molecule `ON=CCC1(CC2CC2)c2ccccc2CCc2ccccc21` [IRR] registered an inhibition in vivo at 25 mg/kg in assay [3] of 38%. In assay [1], this molecule gave an inhibition at 10 µM of 48%. Turning to `CCOC1(CCN(C)C)c2ccccc2CCc2ccccc21` [Compound IA, 5-ethoxy-5-dimethylaminoethyl-10,11-dihydro-5H-dibenzo[a,d]cycloheptene], the “# dead/total at 25 mg/kg” value in assay [2] is 0/8. The molecule further came in with an inhibition in vivo at 25 mg/kg in assay [3] of 69%. In assay [1], this molecule registered an inhibition at 10 µM of 51%. Regarding `CCOC1(CCNC)c2ccccc2CCc2ccccc21` [IK], the “# dead/total at 25 mg/kg” value in assay [2] is 0/9. In assay [3], this molecule had an inhibition in vivo at 25 mg/kg of 40%. This molecule also returned an inhibition at 10 µM in assay [1] of 60%. `C=CCC1(CCN2CCCC2C(=O)O)c2ccccc2CCc2ccccc21` (centres unmarked) [Compound IVV, 1-[2-[10,11-dihydro-5-(2propenyl)-5H-dibenzo[a,d]cyclohepten-5-yl]ethyl]-2-pyrrolidinecarboxylic acid] showed an inhibition at 10 µM in assay [1] of 14%. In assay [1], `CCCC1(CN(C)C)c2ccccc2CCc2ccccc21` [Compound ISS, 10,11-dihydro-N,N-dimethyl-5-propyl-5H-dibenzo[a,d]cyclohepten-5-methanamine] registered an inhibition at 10 µM of 67%. `C=CCC1(CCN(C)C)c2ccccc2CCc2ccccc21` [Compound IE, 10,11-dihydro-N,N-dimethyl-5-(2-propenyl)-5H-dibenzo[a,d]cycloheptene-5-(2-ethanamine)]: the “# dead/total at 25 mg/kg” value in assay [2] is recorded as 0/9. The molecule further came in with an inhibition in vivo at 25 mg/kg in assay [3] of 48%. In assay [1], this molecule displayed an inhibition at 10 µM of 67%. In the case of `CCCC1(CCC=NO)c2ccccc2CCc2ccccc21` [ITT], the inhibition at 10 µM in assay [1] is 4%. Consider `C=CCC1(CCN(C)C(C)=O)c2ccccc2CCc2ccccc21` [IR], for which, in assay [3], the inhibition in vivo at 25 mg/kg was determined as 36%. Besides, the inhibition at 10 µM in assay [1] was 61%. For `CCOC(=O)CN(C)CCC1(OCC)c2ccccc2CCc2ccccc21` [IHH], at 10 µM the inhibition in assay [1] was 40%.

Regarding `C=CCCC1(CCN(C)C)c2ccccc2CCc2ccccc21` [INN], the inhibition at 10 µM in assay [1] is 75%. For `CN(C)CCC1(CC2CC2)c2ccccc2CCc2ccccc21` [IF], in assay [3], the inhibition in vivo at 25 mg/kg was determined as 34%. Further, in assay [1], at 10 µM the inhibition was 68%. With `CCOC1(CCN(C)S(C)(=O)=O)c2ccccc2CCc2ccccc21` [Compound IN, N-[2-(5-ethoxy-10,11-dihydro-5H-dibenzo[a,d]cycloheptenyl)ethyl]-N-methyl-methanesulfonamide], the “# dead/total at 25 mg/kg” value in assay [2] is recorded as 6/9. Moreover, at 10 µM the inhibition in assay [1] was 19%. In the case of `CCOC1(CCN2CCCC2)c2ccccc2COc2ccccc21` (centres unmarked) [Compound IM, 1-[2-(11-ethoxy-6,11-dihydrodibenz[b,e]oxepin-11-yl)ethyl]pyrrolidine], the “# dead/total at 25 mg/kg” value in assay [2] is given as 1/8. This molecule also registered an inhibition in vivo at 25 mg/kg in assay [3] of 58%. The molecule further had an inhibition at 10 µM in assay [1] of 54%.

In the case of `CCOC1(CCN2Cc3ccccc3C2)c2ccccc2CCc2ccccc21` [Compound IL, 2-[2-[5-ethoxy-10,11-dihyd], at 10 µM the inhibition in assay [1] was 53%. `CCOC1(CCN(C)C(C)=O)c2ccccc2CCc2ccccc21` [IJ]: the “# dead/total at 25 mg/kg” value in assay [2] was 8/8. This molecule displayed an inhibition at 10 µM in assay [1] of 48%. In the case of `CCOCC1(CNC(C)=O)c2ccccc2CCc2ccccc21` [IY], the inhibition at 10 µM in assay [1] turned out to be 17%. Same read-out and setting: then `CCOC(=O)N(C)CCC1(OCC)c2ccccc2CCc2ccccc21` [Compound IV], with 34%. Turning to `CCCC1(CCNC)c2ccccc2CCc2ccccc21` [IDD], the “# dead/total at 25 mg/kg” value in assay [2] is given as 9/10. Also, testing at 25 mg/kg in assay [3] gave an inhibition in vivo of 31%. This molecule showed an inhibition at 10 µM in assay [1] of 59%.

Take `CCOC1(CCN(C)C(=O)c2ccc(C(=O)O)cc2)c2ccccc2CCc2ccccc21` [Compound IGG, 4-[[N-[2-[5-ethoxy-10,11-dihydro-5H-dibenzo[a,d]cyclohepten-5-yl]ethyl]-N-methyl]oxo]benzoic acid]: the “# dead/total at 25 mg/kg” value in assay [2] is on record as 10/10. The molecule further showed an inhibition in vivo at 25 mg/kg in assay [3] of 0%. Moreover, in assay [1], 10 µM produced 4% inhibition. For the molecule `CCOCC1(CCN(C)C)c2ccccc2CCc2ccccc21` [IEE], the “# dead/total at 25 mg/kg” value in assay [2] was 8/10. In addition, in assay [3], the inhibition in vivo at 25 mg/kg turned out to be 38%. The same molecule yielded an inhibition at 10 µM in assay [1] of 23%. In assay [1], `C=CCC1(CCN2CCN(C)CC2)c2ccccc2CCc2ccccc21` [IQ] had an inhibition at 10 µM of 68%.

Turning to `CCCC1(CN)c2ccccc2CCc2ccccc21` [Compound IH, 10,11-dihydro-5-propyl-5H-dibenzo[a,d]cycloheptene-5-methanamine], at 10 µM the inhibition in assay [1] was 77%. In assay [1], `CCCC1(CCN(C)C)c2ccccc2CCc2ccc(Cl)cc21` (centres unmarked) [IQQ] returned an inhibition at 10 µM of 42%. For the molecule `CCOC1(CCN(C)S(=O)(=O)c2ccccc2)c2ccccc2CCc2ccccc21` [IW], in assay [2], the “# dead/total at 25 mg/kg” value was 8/10. In assay [1], the inhibition at 10 µM worked out at 47%.

On to `CCOC1(CCN(C)C)c2ccccc2CCc2ccc(Cl)cc21` (centres unmarked) [Compound IS], for which, in assay [2], the “# dead/total at 25 mg/kg” value is reported as 3/10. Regarding `CCOC1(CCNC)c2ccccc2COc2ccccc21` (centres unmarked) [Compound IU], in assay [2], the “# dead/total at 25 mg/kg” value is listed as 8/9. The molecule further displayed an inhibition in vivo at 25 mg/kg in assay [3] of 21%. In assay [1], this molecule had an inhibition at 10 µM of 25%. In turn, `CCOC1(CCN(C)CCOCCO)c2ccccc2CCc2ccccc21` [IJJ] registered an inhibition at 10 µM in assay [1] of 53%. For `CCCC1(CCN(C)C)c2ccccc2CCc2ccccc21` [Compound IC, 10,11-dihydro-N,N-dimethyl-5-propyl-5H-dibenzo[a,d]cycloheptene-5-(2-ethanamine)], in assay [2], the “# dead/total at 25 mg/kg” value is recorded as 1/9. This molecule registered an inhibition in vivo at 25 mg/kg in assay [3] of 65%. Moreover, in assay [1], the inhibition at 10 µM was found to be 60%. As to `CN(C)CCC1(C)c2ccccc2CCc2ccccc21` [IOO], in assay [1], the inhibition at 10 µM came to 16%.

Molecule `C=CCC1(CCN(C)C)c2ccccc2CCc2ccc(Cl)cc21` (centres unmarked) [IPP] yielded an inhibition at 10 µM in assay [1] of 52%. On to `CCOC1(CCN(C)C(=O)c2cc[n+]([O-])cc2)c2ccccc2CCc2ccccc21` [IT], for which, in assay [2], the “# dead/total at 25 mg/kg” value is given as 9/9. This molecule yielded an inhibition at 10 µM in assay [1] of 14%. For the molecule `CCCC1(CCN2CCCC2)c2ccccc2CCc2ccccc21` [IP], in assay [2], the “# dead/total at 25 mg/kg” value is recorded as 9/9. Moreover, the inhibition in vivo at 25 mg/kg in assay [3] worked out at 52%. This molecule also registered an inhibition at 10 µM in assay [1] of 44%. Regarding `C=CCC1(CCNC)c2ccccc2CCc2ccccc21` [IAA], in assay [2], the “# dead/total at 25 mg/kg” value was 5/10. Also, testing at 25 mg/kg in assay [3] gave an inhibition in vivo of 38%. In addition, in assay [1], the inhibition at 10 µM is 56%. With `CCOCC1(CN)c2ccccc2CCc2ccccc21` [IX], the “# dead/total at 25 mg/kg” value in assay [2] is reported as 9/10. In assay [3], this molecule returned an inhibition in vivo at 25 mg/kg of 3%. In assay [1], the inhibition at 10 µM was 29%. On to `C=CCC1(CCN2CCCC2)c2ccccc2CCc2ccccc21` [IO], for which the “# dead/total at 25 mg/kg” value in assay [2] is 5/9. The same molecule returned an inhibition in vivo at 25 mg/kg in assay [3] of 47%. Also, 10 µM produced 66% inhibition in assay [1]. Turning to `CCOC1(CCN(C)CC(=O)O)c2ccccc2CCc2ccccc21` [IKK], the inhibition at 10 µM in assay [1] turned out to be 13%. Regarding `CCOC1(CCN(C)C)c2ccccc2COc2ccccc21` (centres unmarked) [IB], the “# dead/total at 25 mg/kg” value in assay [2] is on record as 0/9. Moreover, at 25 mg/kg the inhibition in vivo in assay [3] was 70%. In assay [1], this molecule had an inhibition at 10 µM of 33%.

Take `CCCC1(CCCN(C)C)c2ccccc2CCc2ccccc21` [Compound IG, 10,11-dihydro-N,N-dimethyl5-propyl-5H-dibenzo[a,d]cycloheptenep]: at 10 µM the inhibition in assay [1] was 60%. As to `CCOCC1(CCNC)c2ccccc2CCc2ccccc21` [IBB], the “# dead/total at 25 mg/kg” value in assay [2] is reported as 10/10. Further, in assay [3], 25 mg/kg produced 34% inhibition in vivo. This molecule showed an inhibition at 10 µM in assay [1] of 45%. In assay [1], `C=CCC1(CC=NO)c2ccccc2CCc2ccccc21` [Compound IUU, 2-[10,11-dihydro. 5-(2-propenyl)-5H-dibenzo[a,d]cyclohepten-5-yl]-ethanone oxime] showed an inhibition at 10 µM of 29%.
